In patent US20030060485A1, “(+)-norcisapride” (priority 1997, published 2003):
Where two headings read alike, the source gives them in different places.

How the values were obtained:
5-HT3 receptor = target: T1, 5-HT3 receptor (Cavia porcellus, UniProt O70212); assay: 5-hydroxykynuramine antagonism on the guinea-pig ileum; type: cell-based, Guinea pigs; conditions: guinea-pig ileum segments; 5-OH-K 3.10^-6 M; read-out: IC50 reducing the 5-OH-K induced effect by 50%
T1 construct: from tissue; host or cells: guinea-pig ileum segments in organ bath
T1 sequence (O70212 24-490 limits assumed): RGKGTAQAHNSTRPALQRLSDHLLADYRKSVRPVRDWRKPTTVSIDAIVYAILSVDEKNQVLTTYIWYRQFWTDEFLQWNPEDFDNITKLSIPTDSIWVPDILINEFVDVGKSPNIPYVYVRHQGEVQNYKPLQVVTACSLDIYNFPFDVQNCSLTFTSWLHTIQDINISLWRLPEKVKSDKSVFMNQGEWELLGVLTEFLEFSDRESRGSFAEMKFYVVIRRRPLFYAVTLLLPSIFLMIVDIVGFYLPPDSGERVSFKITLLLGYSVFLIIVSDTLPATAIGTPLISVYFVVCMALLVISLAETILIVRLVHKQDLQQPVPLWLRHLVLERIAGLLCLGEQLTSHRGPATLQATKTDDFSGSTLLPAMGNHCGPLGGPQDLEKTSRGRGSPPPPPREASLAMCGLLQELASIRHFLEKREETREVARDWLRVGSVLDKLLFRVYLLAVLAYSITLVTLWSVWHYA
Protocol: Since 5-OH—K (5-hydroxykynuramine) is a specific agonist at the 5-HT3 receptor, this test evaluates the potential 5-HT3 antagonistic effects.
Guinea pigs of both sexes, body weight±450 g, were killed by decapitation. Non-terminal, (distal 10 cm discarded), intact ileum segments, strips were cleansed, 4.5 cm long, were vertically suspended with a preload of 0.75 g in an 100 ml bath for isotonic recording; [(Displacement Transducer Control Unit; Janssen Scientific Instrument Division), HP7 DGDT-1000 (Hewlett-Packard CY)]. The organ bath was filled with a Tyrode solution, (37.5° C.), gassed with a mixture of 95% O2 and 5% CO2. After a stabilisation period of 20 minutes, methacholine (3.10^−6 M, 30 seconds contacttime) was added to the bathfluid in order to evaluate the potential maximal contraction, whereafter the bathfluid was refreshed, Subsequently, the serotonin agonist 5-OH-K (30 seconds contact time) was added (final concentration 3.10^−6 M) at intervals of 10 minutes, the bath fluid being refreshed 30 seconds after each addition. After reaching reproducible contractile effects, a single dose of the test compound was added to the bath fluid followed 5 minutes later by addition of 5-OH—K. After establishing the log concentration-responds curve of the test compound, IC50 values reducing the 5-OH—K induced effect by 50% were calculated by linear regression analysis.

[1] = test system: guinea-pig ileum longitudinal muscle layer with myenteric plexus; assay: Guinea-pig ileum coaxial stimulation; type: cell-based, Dunkin-Hartley guinea-pigs; conditions: Cavia porcellus; guinea-pig ileum strips, electrical stimulation 0.1 Hz, 1 ms, submaximal; read-out: EC50 (concentration that stimulates the response to electrical stimulation by 50%)
From the text: Dunkin-Hartley guinea-pigs of either sex (weighing between 600-900 g) were killed by decapitation. The ileum was removed and cleansed with warmed and oxygenated Krebs-Henseleit solution. Parts of the ileum (15 cm) were slipped over a glass pipette. The longitudinal muscle layer with myenteric plexus was removed by means of a cotton thread moistened with Krebs solution. Strips with a length of 8 cm were folded and these strips (4 cm) were mounted between two platinum electrodes (8 cm length, 0.5 cm apart). The strips were suspended with a preload of 1.5 g in 100 ml Krebs-Henseleit solution (37.5° C.), gassed with a mixture of 95% O2 and 5% CO2. The preparations were excited with single rectangular stimuli [1 ms; 0.1 Hz; submaximal response (current leading to 80% of maximal response), from a programmable stimulator (Janssen Scientific Instruments Division)]. Contractions were measured isometrically (Statham UC2, Janssen Scientific Instruments amplifier, Kipp BD-9 pen-recorder). During the stabilization period of 30 minutes, the strips were repeatedly stretched, in order to obtain a steady state tension of 1.5 g. Before starting the electrical stimulation, a cumulative concentration response curve of acetylcholine (3.10^−9, 10^−8, 3.10^−8 and 10^−7 M) was given. The bath fluid was replaced with fresh Krebs solution and the strips were allowed to stabilize for another 30 minutes. […]

[2] = test system: guinea-pig colon ascendens; assay: Guinea-pig colon coaxial stimulation; type: cell-based, Guinea-pigs; conditions: Cavia porcellus; guinea-pig colon ascendens segments; read-out: EC50 (concentration that stimulates the maximal tone effect by 50%)
Protocol: Guinea-pigs of both sexes (body weight±450 g), were killed by decapitation. The colon ascendens was removed and rinsed, whereafter segments of approximately 3 cm length were prepared. These strips were suspended in an organ bath (100 ml) and connected to an isotonic transducer under a preload of 2 g; [Displacement Transducer Control Unit (Janssen Scientific Instrument Division); HP 7 DGDT 1000 (Hewlett-Packard)]. The organ bath was filled with a DeJalon solution (37.5° C.), gassed with a mixture of 95% O2 and 5% CO2. After a stabilization period of 20 minutes, methacholine 3.10^−6 M was added to the bathfluid in order to evaluate the potential maximal effect of the strip (contact time 30 seconds); thereafter, the bathfluid was refreshed. This was repeated at intervals of 10 minutes until a reproducible answer was obtained after addition of methacholine. Thereafter, the test compound was added for 10 minutes. Afterwards, without refreshing the bathfluid, cisapride 3.10^−7 M was added to evaluate a possible 5HT4 effect. When the contraction, caused by cisapride obtained a stable maximal level, methacholine 3.10^−6 M to evaluate a potential anti-cholinergic effect, was added to the bath fluid until a maximal contraction was obtained. The EC50 (i.e. the concentration that stimulates the maximal tone effect by 50%) of a compound, was calculated using linear regression analysis.

[3] = test system: MgSO4-induced intestinal lavage; assay: MgSO4 induced intestinal lavage in dogs; type: in vivo, Beagle dogs; conditions: Canis lupus familiaris, p.o., 1 hour before magnesium sulphate challenge
Protocol: Beagle dogs (of both sexes and varying in body weight, 16 hours deprived from food) were orally pretreated with (+)-norcisapride or solvent and challenged 1 hour later with an oral administration of magnesium sulphate (MgSO4.7H2O, 64g/l, 0.26M; 200 ml). The onset of MgSO4-induced intestinal lavage was assessed over a period of 4 hours after challenge. Liquid stools within 4 hours occured almost never in control animals treated with distilled water (2.5% false positives; n=200) and were considered to reflect significant acceleration of the MgSO4-induced intestinal lavage. Doses in the active dose range were given to five animals each, tested in separate experimental sessions including solvent-treated control animals. All-or-none criteria, based on the distribution of the results obtained in a large number of solvent-treated animals, were used to calculate ED50-values (effective dose) and 95% confidence limits according to Finney's iterative method (Finney, 1962).

[4] = test system: central dopamine antagonism (apomorphine challenge); assay: Apomorphine, tryptamine, norepinephrine (ATN) test in rats: apomorphine challenge; type: in vivo; conditions: Rattus norvegicus, subcutaneous pretreatment, central dopamine antagonistic activity
From the text: (§1) The absence of central dopamine antagonistic and serotonin antagonistic activity of the subject compounds is evidenced by the experimental data obtained in the combined apomorphine (APO), tryptamine (TRY) and norepinephrine (NOR) test in rats. Said combined apomorphine, tryptamine and norepinephrine test is described in Arch. Int. Pharmacodyn., 227, 238-253 (1977) and provides an empirical evaluation of the relative specificity with which drugs may effect particular neurotransmitter systems centrally (CNS) as well as peripherally. […] Central dopamine antagonism is evaluated by challenging rats, subcutaneously pretreated with different doses of the test compound, with apomorphine which is a dopamine agonist. Next, serotonin antagonism is evaluated by challenging the same rats, subcutaneously pretreated with different doses of the test compound, with tryptamine which is an agonist at serotonin 5HT2-receptors. Both central and peripheral serotonin antagonism can be assessed in this test. Centrally acting serotonin antagonists are potential antipsychotic drugs, in particular when simultaneously displaying dopamine antagonism in the first part of this test. Finally, α-adrenergic antagonistic activity of the test compounds is evaluated by challenging the same rats, subcutaneously pretreated with different doses of the test compound, with norepinephrine which is an a-adrenergic agonist. […]

[5] = test system: α-adrenergic (norepinephrine challenge); assay: Apomorphine, tryptamine, norepinephrine (ATN) test in rats: norepinephrine challenge; type: in vivo; conditions: Rattus norvegicus, subcutaneous pretreatment
From the text: as §1

[6] = test system: serotonin 5HT2-receptors (tryptamine challenge); assay: Apomorphine, tryptamine, norepinephrine (ATN) test in rats: tryptamine challenge; type: in vivo; conditions: subcutaneous pretreatment
From the text: as §1

[7] = following oral administration; cited from earlier work

SMILES | IC50 (5-HT3 receptor) [µM] | EC50 [1] [µM] | EC50 [2] [µM] | ED50 ([3]; liquid stools within 1 hour after challenge, read-out: ED50, onset of diarrhoea with 1 hour) [mg/kg] | ED50 ([3]; liquid stools within 2 hours after challenge, read-out: ED50, onset of diarrhoea with 2 hours) [mg/kg] | ED50 ([3]; liquid stools within 3 hours after challenge, read-out: ED50, onset of diarrhoea with 3 hours) [mg/kg] | ED50 ([3]; liquid stools within 4 hours after challenge, read-out: ED50, onset of diarrhoea with 4 hours) [mg/kg] | ED50 [4] [mg/kg] | ED50 [5] [mg/kg] | ED50 TRY convulsions ([6]; central serotonin antagonistic activity) [mg/kg] | ED50 TRY hyperaemia ([6]; peripheral serotonin antagonistic activity) [mg/kg] | unchanged cisapride as share of urinary and fecal recovery [7]
COc1cc(N)c(Cl)cc1C(=O)N[C@@H]1CCNC[C@@H]1OC (stereo in doubt) [Compound 1, (+)-cis-4-amino-5-chloro-2-methoxy-N-(3-methoxy-4-piperidinyl)benzamide] | 0.093 | 0.6 | 1.9 | 0.15 | 0.064 | 0.049 | 0.032 | > 40 | > 40 | >40 | 4.7 | 
COc1cc(N)c(Cl)cc1C(=O)N[C@H]1CCNC[C@H]1OC (stereo in doubt) [Compound 2, (−)-cis-4-amino-5-chloro-2-methoxy-N-(3-methoxy-4-piperidinyl)benzamide] | 0.45 | 5 | 11 |  |  |  |  |  |  |  |  | 
COc1cc(N)c(Cl)cc1C(=O)NC1CCN(CCCOc2ccc(F)cc2)CC1OC (stereo not drawn) [cisapride] |  |  |  |  |  |  |  |  |  |  |  | less than 10%
